The record followed here is patent publication US8455475B2 (Gruenenthal GmbH, priority 2009, dated 2013).

Assay [1] has as its target T1, human B1R (bradykinin receptor 1) (Homo sapiens, UniProt P46663).
T1 construct: expressed in transfected cells; host or cells: CHO K1 cells
T1 sequence (P46663 1-353): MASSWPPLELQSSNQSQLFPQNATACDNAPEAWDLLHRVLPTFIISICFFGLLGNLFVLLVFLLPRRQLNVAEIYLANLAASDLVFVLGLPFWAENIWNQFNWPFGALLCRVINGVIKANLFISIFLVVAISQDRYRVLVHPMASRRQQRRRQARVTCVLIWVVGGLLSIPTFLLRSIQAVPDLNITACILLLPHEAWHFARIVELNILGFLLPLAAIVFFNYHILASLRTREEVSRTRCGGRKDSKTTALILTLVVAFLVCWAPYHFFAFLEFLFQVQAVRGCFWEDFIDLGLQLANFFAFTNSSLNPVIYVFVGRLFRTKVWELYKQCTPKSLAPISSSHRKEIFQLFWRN
Put plainly: FLIPR Ca2+ assay (Fluo-4) on CHO K1 cells stably transfected with the human B1R gene (hB1R cells): % inhibition at 10 μM / IC50, agonist Lys-Des-Arg9-bradykinin. In kind it is cell-based. As to conditions: CHO-K1, human B1R. An outline of the steps: (§1)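 Stably transfected CHO K1 cells loaded with Fluo-4 and read on FLIPR (λex 488, λem 540 nm; peak fluorescence). Test substance (10 μM) added first, then after 10–20 min the agonist at EC80; % inhibition versus maximum achievable inhibition. IC50 from several concentrations, n=2–3, N≥2.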

The target of assay [2] is T2, rat B1R (bradykinin receptor 1) (Rattus norvegicus, UniProt P97583).
T2 construct: expressed in transfected cells; host or cells: CHO K1 cells
T2 sequence (P97583 1-337): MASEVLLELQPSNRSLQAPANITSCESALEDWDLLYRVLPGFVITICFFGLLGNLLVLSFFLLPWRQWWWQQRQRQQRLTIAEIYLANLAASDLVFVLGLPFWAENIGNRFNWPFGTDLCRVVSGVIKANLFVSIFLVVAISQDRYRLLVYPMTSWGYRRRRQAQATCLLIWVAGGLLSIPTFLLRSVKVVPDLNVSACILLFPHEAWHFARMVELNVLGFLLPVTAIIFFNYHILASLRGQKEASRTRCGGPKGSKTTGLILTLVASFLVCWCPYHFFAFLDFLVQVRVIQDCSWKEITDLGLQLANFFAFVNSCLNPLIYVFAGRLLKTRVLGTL
Put plainly: FLIPR Ca2+ assay (Fluo-4) on CHO K1 cells stably transfected with the B1R gene of the rat (rB1R cells): % inhibition at 10 μM / IC50, agonist Des-Arg9-bradykinin. In kind it is cell-based. As to conditions: CHO-K1, rat B1R. An outline of the steps:
as §1

Where a name gives a salt, the structure may show the parent alone.

In the case of `COc1cc(C)c(C(=O)N[C@@H]2CCc3ccc(C(=O)N4CCC5(CCN(c6ccncc6)CC5)C4)cc32)cc1C` [Example H-103, 4-Methoxy-2,5-dimethyl-N-[(1R)-6-(8-pyridin-4-yl-3,8-diazaspiro[4.5]decane-3-carbonyl)-2,3-dihydro-1H-inden-1-yl]-benzamide], the inhibition (usually the drop in the measured response relative to a control, in per cent) at 10 µM in assay [1] came to 99%; in assay [2] it was 106%.
Regarding `Cc1cccc(C)c1C(=O)N[C@@H]1CCc2ccc(C(=O)N3CCC4(CCN(c5ccncc5)CC4)C3)cc21` [Example H-104, 2,6-Dimethyl-N-[(1R)-6-(8-pyridin-4-yl-3,8-diazaspiro[4.5]decane-3-carbonyl)-2,3-dihydro-1H-inden-1-yl]-benzamide], the inhibition at 10 µM in assay [1] was found to be 101%; in assay [2], 109%.
The corresponding values for `O=C(c1ccc2c(c1)[C@H](NS(=O)(=O)c1ccccc1Cl)CC2)N1CCC2(CCN(c3ccncc3)CC2)C1` [Example H-105, 2-Chloro-N-[(1R)-6-(8-pyridin-4-y-3,8-diazaspiro[4.5]decane-3-carbonyl)-2,3-dihydro-1H-inden-1-yl]-benzenesulfonic acid amide] are 100% and 107%.
For `O=C(c1ccc2c(c1)[C@H](NS(=O)(=O)c1ccccc1Cl)CCC2)N1CCC2(CCN(c3ccncc3)CC2)C1` [Example H-106, 2-Chloro-N-[(1R)-7-(8-pyridin-4-yl-3,8-diazaspiro[4.5]decane-3-carbonyl)-1,2,3,4-tetrahydro-naphthalen-1-yl]-benzenesulfonic acid amide], the inhibition at 10 µM in assay [1] came out at 100%; in assay [2], 105%.
For `O=C(N[C@@H]1CCOc2cc(C(F)(F)F)c(C(=O)N3CCC4(CCN(c5ccncc5)CC4)C3)cc21)c1ccccc1Cl` [Example H-107, 2-Chloro-N-[(4R)-6-(8-pyridin-4-yl-3,8-diazaspiro[4.5]decane-3-carbonyl)-7-(trifluoromethyl)-3,4-dihydro-2H-chromen-4-yl]-benzamide], the results for the inhibition at 10 µM in assay [1] and in assay [2] were 72% and 108%, respectively.
With `COc1ccc(C(=O)N[C@@H]2CCc3ccc(C(=O)N4CCC5(CCN(c6ccncc6)CC5)C4)cc32)c(F)c1` [Example H-108, 2-Fluoro-4-methoxy-N-[(1R)-6-(8-pyridin-4-yl-3,8-diazaspiro[4.5]decane-3-carbonyl)-2,3-dihydro-1H-inden-1-yl]-benzamide], the inhibition at 10 µM was found to be 100% in assay [1] and 111% in assay [2].
The corresponding values for `O=C(N[C@@H]1CCc2ccc(C(=O)N3CCC4(CCN(c5ccncc5)CC4)C3)cc21)c1c(F)cccc1Cl` [Example H-109, 2-Chloro-6-fluoro-N-[(1R)-6-(8-pyridin-4-yl-3,8-diazaspiro[4.5]decane-3-carbonyl)-2,3-dihydro-1H-inden-1-yl]-benzamide] are 100% and 109%.
Take `O=C(N[C@@H]1CCc2ccc(C(=O)N3CCC4(CCN(c5ccncc5)CC4)C3)cc21)c1c(F)cccc1C(F)(F)F` [Example H-110, 2-Fluoro-N-[(1R)-6-(8-pyridin-4-yl-3,8-diazaspiro[4.5]decane-3-carbonyl)-2,3-dihydro-1H-inden-1-yl]-6-(trifluoromethyl)-benzamide]: the inhibition at 10 µM was 101% in assay [1] and 108% in assay [2].
As for `Cc1cc(N2CCC3(CCN(C(=O)c4ccc5c(c4)[C@H](NC(=O)c4ccccc4Cl)CC5)C3)CC2)cc(C)n1` [Example H-111, 2-Chloro-N-[(1R)-6-[8-(2,6-dimethyl-pyridin-4-yl)-3,8-diazaspiro[4.5]decane-3-carbonyl]-2,3-dihydro-1H-inden-1-yl]-benzamide hydrochloride], the values for the inhibition at 10 µM in assay [1] and in assay [2] were 100% and 102%, respectively.
As to `Cc1cc(N2CCC3(CCN(C(=O)c4ccc5c(c4)[C@H](NC(=O)c4ccccc4Cl)CC5)C3)CC2)ccn1` [Example H-112, 2-Chloro-N-[(1R)-6-[8-(2-methyl-pyridin-4-yl)-3,8-diazaspiro[4.5]decane-3-carbonyl]-2,3-dihydro-1H-inden-1-yl]-benzamide], the inhibition at 10 µM in assay [1] turned out to be 100%; in assay [2], 102%.
`O=C(c1ccc2c(c1)[C@H](NS(=O)(=O)c1cccc(Cl)c1Cl)CC2)N1CCC2(CCN(c3ccncc3)CC2)C1` [Example H-113, 2,3-Dichloro-N-[(1R)-6-(8-pyridin-4-yl-3,8-diazaspiro[4.5]decane-3-carbonyl)-2,3-dihydro-1H-inden-1-yl]-benzenesulfonic acid amide]: the inhibition at 10 µM in assay [1] was determined as 99%; in assay [2], 92%.
The corresponding values for `Cc1ncccc1C(=O)N[C@@H]1CCc2ccc(C(=O)N3CCC4(CCN(c5ccncc5)CC4)C3)cc21` [Example H-114, 2-Methyl-N-[(1R)-6-(8-pyridin-4-yl-3,8-diazaspiro[4.5]decane-3-carbonyl)-2,3-dihydro-1H-inden-1-yl]-pyridine-3-carboxylic acid amide] are 100% and 102%.
On to `O=C(N[C@@H]1CCc2ccc(C(=O)N3CCC4(CCN(c5ccncc5)CC4)C3)cc21)c1cnccc1C(F)(F)F` [Example H-115, N-[(1R)-6-(8-Pyridin-4-yl-3,8-diazaspiro[4.5]decane-3-carbonyl)-2,3-dihydro-1H-inden-1-yl]-4-(trifluoromethyl)-pyridine-3-carboxylic acid amide], for which the inhibition at 10 µM in assay [1] worked out at 100%; in assay [2], 101%.
`O=C(c1ccc2c(c1)[C@H](NS(=O)(=O)c1ccccc1F)CC2)N1CCC2(CCN(c3ccncc3)CC2)C1` [Example H-116, 2-Fluoro-N-[(1R)-6-(8-pyridin-4-yl-3,8-diazaspiro[4.5]decane-3-carbonyl)-2,3-dihydro-1H-inden-1-yl]-benzenesulfonic acid amide]: the figures for the inhibition at 10 µM in assay [1] and in assay [2] were 100% and 101%, respectively.
As for `Cc1ccccc1S(=O)(=O)N[C@@H]1CCc2ccc(C(=O)N3CCC4(CCN(c5ccncc5)CC4)C3)cc21` [Example H-117, 2-Methyl-N-[(1R)-6-(8-pyridin-4-yl-3,8-diazaspiro[4.5]decane-3-carbonyl)-2,3-dihydro-1H-inden-1-yl]-benzensulfonic acid amide], the figures for the inhibition at 10 µM in assay [1] and in assay [2] were 100% and 101%, respectively.
`O=C(c1ccc2c(c1)[C@H](NS(=O)(=O)c1ccccc1C(F)(F)F)CC2)N1CCC2(CCN(c3ccncc3)CC2)C1` [Example H-118, N-[(1R)-6-(8-Pyridin-4-yl-3,8-diazaspiro[4.5]decane-3-carbonyl)-2,3-dihydro-1H-inden-1-yl]-2-(trifluoromethyl)-benzenesulfonic acid amide]: the inhibition at 10 µM in assay [1] is 100%; in assay [2], 101%.
As for `O=C(c1ccc2c(c1)[C@H](NS(=O)(=O)c1c(Cl)cccc1Cl)CC2)N1CCC2(CCN(c3ccncc3)CC2)C1` [Example H-119, 2,6-Dichloro-N-[(1R)-6-(8-pyridin-4-yl-3,8-diazaspiro[4.5]decane-3-carbonyl)-2,3-dihydro-1H-inden-1-yl]-benzenesulfonic acid amide], the inhibition at 10 µM in assay [1] and in assay [2] was 100% in each case.
As to `O=C(N[C@@H]1CCc2ccc(C(=O)N3CCC4(CCC(OCCn5ccnc5)CC4)CC3)cc21)c1ccccc1Cl` [Example H-120, 2-Chloro-N-[6-[9-[2-(1H-imidazol-1-yl)-ethoxy]-3-azaspiro[5.5]undecane-3-carbonyl]-2,3-dihydro-1H-inden-1-yl]-benzamide], the inhibition at 10 µM in assay [1] was determined as 65%; in assay [2] it was 104%.
With `O=C(NC1CCc2ccc(C(=O)N3CCC4(CCC(O)(c5ccncc5)CC4)C3)cc21)c1ccccc1Cl` (stereo not drawn) [Example H-128, 2-Chloro-N-[6-(8-hydroxy-8-pyridin-4-yl-3-azaspiro[4.5]decane-3-carbonyl)-2,3-dihydro-1H-inden-1-yl]-benzamide], the results for the inhibition at 10 µM in assay [1] and in assay [2] were 38% and 36%, respectively.
Regarding `O=C(NC1CCc2ccc(C(=O)N3CCC4(CCN(c5cc[n+]([O-])cc5)CC4)C3)cc21)c1ccccc1Cl` (stereo not drawn) [Example H-129, 2-Chloro-N-[6-[8-(1-oxido-pyridin-1-ium-4-yl)-3,8-diazaspiro[4.5]decane-3-carbonyl]-2,3-dihydro-1H-inden-1-yl]-benzamide], the inhibition at 10 µM in assay [1] was 100%; in assay [2] it was 102%.
With `O=C(NC1CCc2ccc(C(=O)N3CCC4(CCN(c5ncc(C(F)(F)F)cn5)CC4)C3)cc21)c1ccccc1Cl` (stereo not drawn) [Example H-130, 2-Chloro-N-[6-[8-[5-(trifluoromethyl)-pyrimidin-2-yl]-3,8-diazaspiro[4.5]decane-3-carobnyl]-2,3-dihydro-1H-inden-1-yl]-benzamide], the inhibition at 10 µM in assay [1] was determined as 94%; in assay [2], 99%.
